Measurements from ChEMBL document CHEMBL1201862, “PubChem BioAssay data set” (2004).
Activity calls are given as the source filed them.

How the values were obtained:
[1] = biological target: T1, G-protein coupled receptor 35 (Homo sapiens, UniProt Q9HC97); assay: GPR35 antagonists blocking zaprinast-driven arrestin recruitment, primary screen, imaging, U2OS, beta-arrestin-GFP, zaprinast agonist (AID 2058); type: functional;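 also: antagonist potency meaning inhibition of agonist-induced arrestin redistribution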
T1 sequence (Q9HC97 whole entry): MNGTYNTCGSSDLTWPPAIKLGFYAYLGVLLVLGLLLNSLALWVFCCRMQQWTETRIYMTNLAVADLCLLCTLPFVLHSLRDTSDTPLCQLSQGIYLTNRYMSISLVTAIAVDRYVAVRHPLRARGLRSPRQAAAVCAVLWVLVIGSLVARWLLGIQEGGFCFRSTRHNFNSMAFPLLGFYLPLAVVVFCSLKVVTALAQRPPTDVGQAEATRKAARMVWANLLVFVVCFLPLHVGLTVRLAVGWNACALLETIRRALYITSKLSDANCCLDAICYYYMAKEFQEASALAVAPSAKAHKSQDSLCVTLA

[2] = inhibitors of firefly luciferase expression or activity, dose response, H4 neuroglioma cells, luminescence (AID 1990); type: functional, cell-based
[3] = biological target: T1, G-protein coupled receptor 35; assay: SAR Analysis for the identification of Selective Antagonists of ERK1/2 Activity in GPR35-Overexpressing U2OS Cells. [Related pubchem assays: 2079, 2058 ]; type: functional, cell-based
[4] = Luminescence Cell-Based Dose Response HTS to Identify Inhibitors of 5'UTR Stem-Loop Driven Prion Protein mRNA Translation in H4 Neuroglioblastoma Cells. [Related pubchem assays: 1827 (Project Summary), 1813 (Primary HTS)]; type: functional
[5] = inhibitors of SNCA 5'UTR-driven reporter translation, confirmation, H4 neuroglioma cells, luminescence (AID 1988); type: functional, cell-based
[6] = biological target: Tyrosine-protein phosphatase non-receptor type 12 (Homo sapiens, UniProt Q05209); assay: SAR Selectivity Analysis of small molecule inhibitors of PEST using pCAP in a fluorescence assay. [Related pubchem assays (depositor defined):AID1779, AID1784, AID2135]; type: functional
[7] = biological target: T2, Tyrosine-protein phosphatase non-receptor type 22 (Homo sapiens, UniProt Q9Y2R2); assay: SAR LYP1 Fluorescent Assay using OMFP substrate for In Vitro dose response studies - Set 3. [Related pubchem assays (depositor defined):AID1779, AID1784, AID2140, AID2686]; type: functional
T2 sequence (Q9Y2R2 whole entry): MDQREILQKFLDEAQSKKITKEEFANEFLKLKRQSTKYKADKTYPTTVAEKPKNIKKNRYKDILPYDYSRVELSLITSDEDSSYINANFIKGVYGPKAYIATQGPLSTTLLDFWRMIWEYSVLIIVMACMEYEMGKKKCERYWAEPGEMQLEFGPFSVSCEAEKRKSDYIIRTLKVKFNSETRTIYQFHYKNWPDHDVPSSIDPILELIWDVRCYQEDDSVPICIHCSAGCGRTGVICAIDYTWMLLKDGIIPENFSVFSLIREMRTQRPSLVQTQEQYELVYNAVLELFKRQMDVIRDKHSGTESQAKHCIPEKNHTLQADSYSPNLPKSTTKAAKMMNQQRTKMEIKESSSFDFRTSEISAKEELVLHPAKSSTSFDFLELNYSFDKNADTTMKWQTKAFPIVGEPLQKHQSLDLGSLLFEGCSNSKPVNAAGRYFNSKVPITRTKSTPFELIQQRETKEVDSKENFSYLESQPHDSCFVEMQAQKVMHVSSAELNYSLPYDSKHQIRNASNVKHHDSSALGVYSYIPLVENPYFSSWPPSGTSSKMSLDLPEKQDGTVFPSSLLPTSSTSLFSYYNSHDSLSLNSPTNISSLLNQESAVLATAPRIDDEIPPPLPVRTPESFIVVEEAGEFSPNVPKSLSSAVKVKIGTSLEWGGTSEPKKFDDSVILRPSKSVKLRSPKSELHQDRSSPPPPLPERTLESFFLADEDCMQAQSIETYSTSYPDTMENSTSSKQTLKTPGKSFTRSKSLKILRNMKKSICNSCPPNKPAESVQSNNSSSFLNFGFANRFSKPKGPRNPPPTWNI

[8] = biological target: T3, Tyrosine-protein phosphatase non-receptor type 7 (Homo sapiens, UniProt P35236); assay: HePTP (PTPN7) phosphatase inhibitor potency, SAR follow-up, biochemical, set 2 (AID 449736); type: functional
T3 sequence (P35236 whole entry): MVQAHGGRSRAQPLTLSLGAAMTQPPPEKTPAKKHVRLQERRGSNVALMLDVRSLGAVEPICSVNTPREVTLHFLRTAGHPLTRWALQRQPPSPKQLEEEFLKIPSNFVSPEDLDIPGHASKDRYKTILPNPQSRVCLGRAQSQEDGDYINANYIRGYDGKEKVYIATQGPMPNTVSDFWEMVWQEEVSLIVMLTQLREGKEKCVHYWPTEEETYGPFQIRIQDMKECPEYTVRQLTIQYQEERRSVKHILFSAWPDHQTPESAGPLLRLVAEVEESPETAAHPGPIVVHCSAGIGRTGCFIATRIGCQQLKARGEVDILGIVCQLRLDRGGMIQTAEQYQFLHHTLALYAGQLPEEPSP

[9] = biological target: T2, Tyrosine-protein phosphatase non-receptor type 22; assay: LYP (PTPN22) phosphatase inhibitor potency, SAR follow-up, biochemical, pCAP fluorogenic substrate, fluorescence, set 3 (AID 449727); type: functional
[10] = biological target: G-protein coupled receptor 55 (Homo sapiens, UniProt Q9Y2T6); assay: GPR55 antagonists, SAR follow-up, counter-screen for GPR35 antagonist project, imaging, image-based (AID 2397); type: functional
Sequence of G-protein coupled receptor 55 (Q9Y2T6 whole entry): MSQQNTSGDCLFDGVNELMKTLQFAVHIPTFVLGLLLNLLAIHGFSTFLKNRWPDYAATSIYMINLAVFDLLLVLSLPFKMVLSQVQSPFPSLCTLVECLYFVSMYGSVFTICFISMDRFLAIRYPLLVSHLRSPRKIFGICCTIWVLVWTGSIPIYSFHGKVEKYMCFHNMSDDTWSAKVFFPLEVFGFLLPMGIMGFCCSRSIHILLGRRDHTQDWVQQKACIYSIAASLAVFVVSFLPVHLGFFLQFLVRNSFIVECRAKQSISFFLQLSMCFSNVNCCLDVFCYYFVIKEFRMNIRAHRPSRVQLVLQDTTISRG

SUMO E1/E2 = SUMO E1/E2 (Homo sapiens, UniProt P63279+Q9UBE0+Q9UBT2); assay: SAR analysis of SUMOylation using HTRF in an in-Vitro dose response assay. [Related pubchem assays (depositor defined):AID2006, AID2011, AID2018, AID2069, AID2658]; type: functional
[11] = biological target: T4, Voltage-gated N-type calcium channel alpha-1B subunit/Amyloid beta A4 precursor protein-binding family A member 1 (Homo sapiens, UniProt Q00975+Q02410); assay: disruptors of Mint-PDZ/N-type channel peptide interaction – biochemical, HTRF, set 2, SAR follow-up (AID 434980); type: functional
T4 sequence (Q00975 whole entry): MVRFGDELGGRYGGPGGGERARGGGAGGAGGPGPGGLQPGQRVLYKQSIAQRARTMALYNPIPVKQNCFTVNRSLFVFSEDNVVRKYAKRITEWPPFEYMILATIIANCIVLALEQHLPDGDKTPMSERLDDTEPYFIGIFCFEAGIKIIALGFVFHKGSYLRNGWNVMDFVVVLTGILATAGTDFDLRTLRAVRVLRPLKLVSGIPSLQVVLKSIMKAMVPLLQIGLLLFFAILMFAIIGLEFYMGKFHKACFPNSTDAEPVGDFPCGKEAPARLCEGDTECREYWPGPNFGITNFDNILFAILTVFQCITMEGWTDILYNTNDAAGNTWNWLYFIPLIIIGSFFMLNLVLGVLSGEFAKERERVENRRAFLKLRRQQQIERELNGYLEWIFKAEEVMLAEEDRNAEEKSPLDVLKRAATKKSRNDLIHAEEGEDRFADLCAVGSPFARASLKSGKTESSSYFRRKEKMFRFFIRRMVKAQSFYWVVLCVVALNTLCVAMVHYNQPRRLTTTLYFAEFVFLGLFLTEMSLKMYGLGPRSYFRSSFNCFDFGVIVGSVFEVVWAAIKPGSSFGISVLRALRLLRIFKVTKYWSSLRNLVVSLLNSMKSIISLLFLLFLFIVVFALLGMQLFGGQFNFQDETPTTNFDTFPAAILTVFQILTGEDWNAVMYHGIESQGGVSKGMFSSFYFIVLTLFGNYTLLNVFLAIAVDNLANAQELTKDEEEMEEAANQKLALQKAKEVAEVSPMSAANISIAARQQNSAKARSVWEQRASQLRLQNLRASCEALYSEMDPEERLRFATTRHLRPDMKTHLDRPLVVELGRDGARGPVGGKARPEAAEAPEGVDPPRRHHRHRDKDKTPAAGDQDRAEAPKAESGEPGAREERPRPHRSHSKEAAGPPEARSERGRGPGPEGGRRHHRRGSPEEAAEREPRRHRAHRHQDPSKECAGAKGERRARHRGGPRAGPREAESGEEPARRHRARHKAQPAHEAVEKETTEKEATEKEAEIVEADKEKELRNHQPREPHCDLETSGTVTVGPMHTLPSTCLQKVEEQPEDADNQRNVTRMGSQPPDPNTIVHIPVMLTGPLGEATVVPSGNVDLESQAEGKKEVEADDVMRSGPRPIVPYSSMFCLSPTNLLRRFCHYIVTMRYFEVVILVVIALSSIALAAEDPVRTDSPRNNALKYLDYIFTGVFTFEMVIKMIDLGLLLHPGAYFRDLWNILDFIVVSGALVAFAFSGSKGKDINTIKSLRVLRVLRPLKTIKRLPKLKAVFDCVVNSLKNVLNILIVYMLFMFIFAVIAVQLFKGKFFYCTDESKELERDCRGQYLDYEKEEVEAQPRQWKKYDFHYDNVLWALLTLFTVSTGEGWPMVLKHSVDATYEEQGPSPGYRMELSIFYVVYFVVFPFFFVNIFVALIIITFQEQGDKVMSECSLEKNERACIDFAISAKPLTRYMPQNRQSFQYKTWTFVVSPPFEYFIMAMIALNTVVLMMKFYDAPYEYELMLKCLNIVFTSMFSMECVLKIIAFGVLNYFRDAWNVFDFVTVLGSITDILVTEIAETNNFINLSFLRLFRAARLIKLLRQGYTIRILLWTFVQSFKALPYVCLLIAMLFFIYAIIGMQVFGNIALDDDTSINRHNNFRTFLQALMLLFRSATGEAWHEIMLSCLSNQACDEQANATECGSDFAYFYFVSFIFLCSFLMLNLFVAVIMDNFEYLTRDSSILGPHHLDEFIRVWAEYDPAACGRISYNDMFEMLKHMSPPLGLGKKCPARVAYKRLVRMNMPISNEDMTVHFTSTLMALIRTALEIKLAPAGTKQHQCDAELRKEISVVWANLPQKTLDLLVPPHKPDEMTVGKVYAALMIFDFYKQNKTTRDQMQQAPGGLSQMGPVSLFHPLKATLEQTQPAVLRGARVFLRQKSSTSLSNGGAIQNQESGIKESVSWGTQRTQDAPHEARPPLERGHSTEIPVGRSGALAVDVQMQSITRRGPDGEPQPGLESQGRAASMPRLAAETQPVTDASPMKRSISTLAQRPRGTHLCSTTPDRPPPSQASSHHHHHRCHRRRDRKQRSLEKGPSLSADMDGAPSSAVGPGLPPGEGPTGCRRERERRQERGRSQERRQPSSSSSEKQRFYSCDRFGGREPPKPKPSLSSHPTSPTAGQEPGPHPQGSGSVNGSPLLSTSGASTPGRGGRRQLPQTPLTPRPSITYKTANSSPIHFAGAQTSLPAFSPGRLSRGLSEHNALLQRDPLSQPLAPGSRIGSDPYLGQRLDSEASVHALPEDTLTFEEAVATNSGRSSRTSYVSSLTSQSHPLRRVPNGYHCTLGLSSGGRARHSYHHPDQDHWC
T4 sequence (Q02410 whole entry): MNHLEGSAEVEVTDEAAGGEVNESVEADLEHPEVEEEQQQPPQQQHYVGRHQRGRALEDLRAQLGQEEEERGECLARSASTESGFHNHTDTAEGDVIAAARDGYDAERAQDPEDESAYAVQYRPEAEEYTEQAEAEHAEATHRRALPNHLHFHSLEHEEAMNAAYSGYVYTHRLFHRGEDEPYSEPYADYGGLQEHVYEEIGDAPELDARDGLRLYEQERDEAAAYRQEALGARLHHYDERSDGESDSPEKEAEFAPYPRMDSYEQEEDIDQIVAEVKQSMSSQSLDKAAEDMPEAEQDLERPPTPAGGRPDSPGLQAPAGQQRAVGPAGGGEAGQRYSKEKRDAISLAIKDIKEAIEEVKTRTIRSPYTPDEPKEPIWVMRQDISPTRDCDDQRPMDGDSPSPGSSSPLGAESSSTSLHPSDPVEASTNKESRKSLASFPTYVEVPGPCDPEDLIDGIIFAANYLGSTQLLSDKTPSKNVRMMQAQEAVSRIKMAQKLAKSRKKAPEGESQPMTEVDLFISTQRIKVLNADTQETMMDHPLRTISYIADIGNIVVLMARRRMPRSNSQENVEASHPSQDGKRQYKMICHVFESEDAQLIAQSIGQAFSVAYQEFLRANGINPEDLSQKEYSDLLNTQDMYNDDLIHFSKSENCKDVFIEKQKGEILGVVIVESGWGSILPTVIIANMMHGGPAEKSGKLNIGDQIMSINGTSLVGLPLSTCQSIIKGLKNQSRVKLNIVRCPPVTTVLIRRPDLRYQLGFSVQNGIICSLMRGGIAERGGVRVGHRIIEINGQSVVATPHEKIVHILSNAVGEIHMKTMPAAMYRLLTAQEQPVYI

[12] = biological target: T4, Voltage-gated N-type calcium channel alpha-1B subunit/Amyloid beta A4 precursor protein-binding family A member 1; assay: disruptors of Mint-PDZ/N-type channel peptide interaction – biochemical, HTRF, SAR follow-up (AID 2489); type: functional
[13] = biological target: Potassium voltage-gated channel subfamily KQT member 2 (Rattus norvegicus, UniProt O88943); assay: KCNQ2 channel activators, analog series, SAR follow-up, automated patch clamp, KCNQ2-CHO cells (AID 493113); type: functional
[14] = biological target: Intestinal-type alkaline phosphatase (Mus musculus, UniProt P24822); assay: PubChem AID 488875; type: functional
Sequence of Intestinal-type alkaline phosphatase (Mus musculus, UniProt P24822) (P24822 whole entry): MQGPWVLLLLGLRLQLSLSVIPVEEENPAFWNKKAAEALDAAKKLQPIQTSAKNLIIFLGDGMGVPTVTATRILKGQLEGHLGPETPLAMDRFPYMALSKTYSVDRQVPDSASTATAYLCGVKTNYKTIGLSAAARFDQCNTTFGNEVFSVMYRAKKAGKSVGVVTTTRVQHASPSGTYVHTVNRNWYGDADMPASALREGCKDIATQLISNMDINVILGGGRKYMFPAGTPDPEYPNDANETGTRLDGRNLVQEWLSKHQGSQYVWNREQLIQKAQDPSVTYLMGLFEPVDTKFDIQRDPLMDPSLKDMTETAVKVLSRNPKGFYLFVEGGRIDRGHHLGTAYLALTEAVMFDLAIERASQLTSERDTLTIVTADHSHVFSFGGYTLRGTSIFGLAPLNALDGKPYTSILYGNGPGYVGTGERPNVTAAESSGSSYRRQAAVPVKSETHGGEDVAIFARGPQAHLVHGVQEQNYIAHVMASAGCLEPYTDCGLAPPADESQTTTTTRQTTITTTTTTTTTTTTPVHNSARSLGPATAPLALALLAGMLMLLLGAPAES

[15] = biological target: T5, Intestinal-type alkaline phosphatase (Homo sapiens, UniProt P09923); assay: human intestinal alkaline phosphatase activators, dose response, biochemical, luminescence, uHTS hits (AID 463120); type: functional
T5 sequence (P09923 whole entry): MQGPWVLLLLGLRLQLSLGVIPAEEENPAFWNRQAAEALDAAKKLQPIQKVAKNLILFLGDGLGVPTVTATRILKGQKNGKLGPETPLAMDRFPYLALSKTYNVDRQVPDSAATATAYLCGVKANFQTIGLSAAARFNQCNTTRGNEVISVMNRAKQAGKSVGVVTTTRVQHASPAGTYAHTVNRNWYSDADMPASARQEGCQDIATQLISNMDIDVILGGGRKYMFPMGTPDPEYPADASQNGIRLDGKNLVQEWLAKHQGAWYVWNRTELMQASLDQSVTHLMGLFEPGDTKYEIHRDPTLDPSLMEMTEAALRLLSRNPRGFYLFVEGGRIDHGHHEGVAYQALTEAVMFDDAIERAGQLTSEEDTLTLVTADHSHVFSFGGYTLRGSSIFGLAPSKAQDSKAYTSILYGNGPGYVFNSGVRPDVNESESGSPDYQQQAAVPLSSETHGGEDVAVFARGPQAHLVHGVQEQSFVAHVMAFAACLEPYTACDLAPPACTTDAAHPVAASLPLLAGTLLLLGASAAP

[16] = biological target: T5, Intestinal-type alkaline phosphatase; assay: human IAP activators, dose response, biochemical, luminescent, uHTS hits, set 2 (AID 488817); type: functional;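 also: potency of activators that raise enzyme activity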
[17] = biological target: T6, Alkaline phosphatase, tissue-nonspecific isozyme (Homo sapiens, UniProt P05186); assay: TNAP enzyme activators, dose response, selectivity assay for human IAP activator project, biochemical, TNAP isozyme, human IAP uHTS hits (AID 488886); type: functional;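 also: potency of compounds raising TNAP activity as a selectivity check on IAP activators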
T6 sequence (P05186 whole entry): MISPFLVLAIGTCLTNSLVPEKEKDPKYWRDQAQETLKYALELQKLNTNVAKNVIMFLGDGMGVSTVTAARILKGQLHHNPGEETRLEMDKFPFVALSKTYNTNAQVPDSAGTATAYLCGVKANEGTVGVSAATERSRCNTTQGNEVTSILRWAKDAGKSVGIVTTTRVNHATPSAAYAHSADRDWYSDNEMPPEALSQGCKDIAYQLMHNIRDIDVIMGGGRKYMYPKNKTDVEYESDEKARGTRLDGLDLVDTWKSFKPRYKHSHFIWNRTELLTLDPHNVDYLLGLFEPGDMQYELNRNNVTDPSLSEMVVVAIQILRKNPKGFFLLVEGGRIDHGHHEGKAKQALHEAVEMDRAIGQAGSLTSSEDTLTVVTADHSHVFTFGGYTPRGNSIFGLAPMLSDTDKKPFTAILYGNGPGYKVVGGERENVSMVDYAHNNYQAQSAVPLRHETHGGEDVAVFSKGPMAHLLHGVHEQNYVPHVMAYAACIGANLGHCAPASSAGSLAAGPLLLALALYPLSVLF

INS1 = assay: beta cell apoptosis inhibitors, cytokine rescue, dose response, luminescence, retest (AID 449756); type: functional, cell-based; settings: Rattus norvegicus;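 also: cell death triggered by IL-1 beta plus TNF-alpha plus IFN-gamma mixture; protective hits raise ATP signal compared with cytokine alone wells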
Cytochrome P450 1A2 = biological target: T7, Cytochrome P450 1A2 (Homo sapiens, UniProt P05177);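 also: PubChem cytochrome P450 panel assay, CYP1A2 panel member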
T7 sequence (P05177 whole entry): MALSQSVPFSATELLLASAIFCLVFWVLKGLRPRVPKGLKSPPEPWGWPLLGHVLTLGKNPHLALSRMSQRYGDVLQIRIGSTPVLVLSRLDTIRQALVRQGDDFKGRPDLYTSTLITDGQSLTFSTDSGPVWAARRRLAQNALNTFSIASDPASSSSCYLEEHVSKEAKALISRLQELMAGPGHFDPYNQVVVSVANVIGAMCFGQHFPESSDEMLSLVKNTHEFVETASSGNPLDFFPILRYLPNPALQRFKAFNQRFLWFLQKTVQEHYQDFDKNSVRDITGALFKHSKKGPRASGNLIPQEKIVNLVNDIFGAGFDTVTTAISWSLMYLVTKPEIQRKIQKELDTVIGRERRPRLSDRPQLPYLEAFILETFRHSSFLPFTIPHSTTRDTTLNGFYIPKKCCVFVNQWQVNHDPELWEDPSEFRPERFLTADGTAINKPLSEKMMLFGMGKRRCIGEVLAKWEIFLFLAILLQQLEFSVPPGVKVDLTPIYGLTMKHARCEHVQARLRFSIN

O=C(CCCN1C(=O)/C(=C/c2ccc3c(c2)OCO3)SC1=S)Nc1cccc(C(=O)O)c1
IC50 [1]: 803 nM (active) | EC50 [2]: 10.2 µM (active) | IC50 [3]: 1.89 µM (active) | EC50 [4]: 17.5 µM (active) | EC50 [5]: > 120 µM (not active) | IC50 [6]: 37.4 µM (active) | IC50 [7]: > 100 µM (inactive) | IC50 [8]: 2.47 µM (active) | IC50 [9]: 62.7 µM (active) | IC50 [10]: > 32 µM (inactive)

COc1ccc(CNC(=O)COC(=O)c2cc(-c3ccco3)nc3ccccc23)cc1OC
IC50 (SUMO E1/E2): 6.04 µM (active) | IC50 [11]: 5.49 µM (active) | IC50 [12]: > 56.8 µM (inactive)

O=C(Nc1ccc2ccccc2c1)C1CC2CCC1C2 (stereo not given)
EC50 [13]: 600 nM (active)

Cc1ccc(O)c(/C=N/NC(=O)c2[nH]ncc2Br)c1
EC50 [14]: > 100 µM (inactive) | EC50 [15]: 7.61 µM (active) | EC50 [16]: 47.6 µM (active) | EC50 [17]: 49.6 µM (active) | AC50 (INS1): 33.5 µM (active)

C[C@@H]1COc2c(N3CCN(C)CC3)c(F)cc3c(=O)c(C(=O)O)cn1c23 [DEXTROFLOXACINE]
AC50 (Cytochrome P450 1A2): inactive
